Activity calls are given as the source filed them. Rule as the data show it, for most assays here: actives have a measured Kd and inactives only a lower limit.

This note sets out measurements from ChEMBL document CHEMBL3991601, “The target landscape of clinical kinase drugs” (Science, 2017).

The target in assay [1] is T1, General transcription and DNA repair factor IIH helicase subunit XPD (Homo sapiens, UniProt P18074).
T1 sequence (P18074 whole entry): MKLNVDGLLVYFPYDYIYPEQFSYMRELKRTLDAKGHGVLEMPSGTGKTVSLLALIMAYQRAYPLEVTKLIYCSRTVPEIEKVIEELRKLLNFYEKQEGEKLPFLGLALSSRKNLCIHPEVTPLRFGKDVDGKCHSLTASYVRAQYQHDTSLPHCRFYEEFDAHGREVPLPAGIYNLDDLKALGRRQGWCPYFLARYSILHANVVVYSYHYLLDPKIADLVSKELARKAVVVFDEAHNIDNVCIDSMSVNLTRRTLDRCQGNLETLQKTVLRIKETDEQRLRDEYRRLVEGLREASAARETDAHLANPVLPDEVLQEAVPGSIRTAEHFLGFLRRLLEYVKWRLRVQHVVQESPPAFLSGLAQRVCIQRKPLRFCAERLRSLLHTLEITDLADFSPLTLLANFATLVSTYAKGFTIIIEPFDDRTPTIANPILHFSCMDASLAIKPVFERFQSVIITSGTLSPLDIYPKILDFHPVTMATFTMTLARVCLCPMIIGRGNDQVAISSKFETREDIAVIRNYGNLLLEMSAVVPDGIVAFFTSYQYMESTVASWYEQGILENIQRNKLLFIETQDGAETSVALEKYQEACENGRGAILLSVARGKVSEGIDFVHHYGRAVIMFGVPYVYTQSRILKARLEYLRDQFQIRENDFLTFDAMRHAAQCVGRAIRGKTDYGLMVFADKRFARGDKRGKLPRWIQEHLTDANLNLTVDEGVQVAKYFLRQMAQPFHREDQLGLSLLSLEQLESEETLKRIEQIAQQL
The settings on record: read-out: Kd apparent; k-562, colo 205, sk-n-be(2) and mv-4-11.

Assay [2] addresses Serine/threonine-protein kinase SIK3 (Homo sapiens, UniProt Q9Y2K2).
In the next assay the target is T2, Glycine--tRNA ligase (Homo sapiens, UniProt P41250).
T2 sequence (P41250 whole entry): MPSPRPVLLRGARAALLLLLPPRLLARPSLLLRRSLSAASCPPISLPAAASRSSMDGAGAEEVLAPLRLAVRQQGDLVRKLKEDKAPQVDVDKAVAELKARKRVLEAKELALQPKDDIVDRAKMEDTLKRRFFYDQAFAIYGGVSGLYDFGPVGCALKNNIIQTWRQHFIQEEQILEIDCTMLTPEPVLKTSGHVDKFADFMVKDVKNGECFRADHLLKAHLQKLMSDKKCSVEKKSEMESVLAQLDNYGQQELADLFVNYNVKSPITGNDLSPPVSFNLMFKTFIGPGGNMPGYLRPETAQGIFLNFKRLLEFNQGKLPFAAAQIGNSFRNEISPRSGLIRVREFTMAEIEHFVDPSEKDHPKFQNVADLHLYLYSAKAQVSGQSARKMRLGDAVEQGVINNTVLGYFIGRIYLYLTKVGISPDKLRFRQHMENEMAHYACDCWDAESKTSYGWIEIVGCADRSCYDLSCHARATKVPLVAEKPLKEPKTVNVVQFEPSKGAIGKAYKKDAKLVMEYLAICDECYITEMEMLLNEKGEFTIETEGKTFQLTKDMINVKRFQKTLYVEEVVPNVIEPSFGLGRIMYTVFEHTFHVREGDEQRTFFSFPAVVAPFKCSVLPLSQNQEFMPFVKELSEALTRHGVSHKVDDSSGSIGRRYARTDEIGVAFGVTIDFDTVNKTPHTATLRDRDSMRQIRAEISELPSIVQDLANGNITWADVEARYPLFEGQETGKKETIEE

The target in assay [3] is Mitogen-activated protein kinase 10 (Homo sapiens, UniProt P53779).
Chain of Mitogen-activated protein kinase 10 (P53779 whole entry): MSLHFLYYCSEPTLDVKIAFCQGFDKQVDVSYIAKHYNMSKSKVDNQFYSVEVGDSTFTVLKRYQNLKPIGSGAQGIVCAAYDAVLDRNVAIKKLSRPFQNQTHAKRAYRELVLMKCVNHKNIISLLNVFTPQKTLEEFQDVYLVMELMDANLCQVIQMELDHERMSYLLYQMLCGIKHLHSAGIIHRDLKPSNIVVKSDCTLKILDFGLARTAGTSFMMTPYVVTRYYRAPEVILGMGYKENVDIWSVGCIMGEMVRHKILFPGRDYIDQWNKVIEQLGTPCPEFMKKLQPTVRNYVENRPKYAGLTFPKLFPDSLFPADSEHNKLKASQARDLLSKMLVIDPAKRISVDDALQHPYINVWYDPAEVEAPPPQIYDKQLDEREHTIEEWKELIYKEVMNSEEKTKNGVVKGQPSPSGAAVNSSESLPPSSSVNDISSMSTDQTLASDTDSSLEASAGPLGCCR
For the next assay, the target named is T3, Scaffold protein ILK (Homo sapiens, UniProt Q13418).
T3 sequence (Q13418 whole entry): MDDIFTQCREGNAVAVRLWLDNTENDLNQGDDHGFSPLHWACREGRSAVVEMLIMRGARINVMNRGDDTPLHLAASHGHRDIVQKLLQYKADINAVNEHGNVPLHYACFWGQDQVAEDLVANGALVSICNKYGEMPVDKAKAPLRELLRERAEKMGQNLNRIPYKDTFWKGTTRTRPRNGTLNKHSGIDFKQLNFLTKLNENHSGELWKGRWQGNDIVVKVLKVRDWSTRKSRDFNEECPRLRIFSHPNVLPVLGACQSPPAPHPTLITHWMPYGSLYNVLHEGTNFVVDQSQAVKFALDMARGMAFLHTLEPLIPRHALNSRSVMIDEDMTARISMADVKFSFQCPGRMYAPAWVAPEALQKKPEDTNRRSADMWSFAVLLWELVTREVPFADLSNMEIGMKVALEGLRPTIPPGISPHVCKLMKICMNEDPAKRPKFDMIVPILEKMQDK

The next assay addresses T4, Aurora kinase A (Homo sapiens, UniProt O14965).
T4 sequence (O14965 whole entry): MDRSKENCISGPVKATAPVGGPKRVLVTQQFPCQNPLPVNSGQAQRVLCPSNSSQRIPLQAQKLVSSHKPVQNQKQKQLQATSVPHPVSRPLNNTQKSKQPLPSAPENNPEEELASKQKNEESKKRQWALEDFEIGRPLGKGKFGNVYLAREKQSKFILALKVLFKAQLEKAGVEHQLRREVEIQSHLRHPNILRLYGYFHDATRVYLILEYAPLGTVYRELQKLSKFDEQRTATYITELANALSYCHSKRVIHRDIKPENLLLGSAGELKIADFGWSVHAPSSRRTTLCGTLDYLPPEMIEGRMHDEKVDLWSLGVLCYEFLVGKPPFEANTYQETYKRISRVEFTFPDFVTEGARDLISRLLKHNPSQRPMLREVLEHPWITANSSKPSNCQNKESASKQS
Also: in the data inactive means no Kd found up to 30 µM.

Chain of Serine/threonine-protein kinase SIK3 (Q9Y2K2 whole entry): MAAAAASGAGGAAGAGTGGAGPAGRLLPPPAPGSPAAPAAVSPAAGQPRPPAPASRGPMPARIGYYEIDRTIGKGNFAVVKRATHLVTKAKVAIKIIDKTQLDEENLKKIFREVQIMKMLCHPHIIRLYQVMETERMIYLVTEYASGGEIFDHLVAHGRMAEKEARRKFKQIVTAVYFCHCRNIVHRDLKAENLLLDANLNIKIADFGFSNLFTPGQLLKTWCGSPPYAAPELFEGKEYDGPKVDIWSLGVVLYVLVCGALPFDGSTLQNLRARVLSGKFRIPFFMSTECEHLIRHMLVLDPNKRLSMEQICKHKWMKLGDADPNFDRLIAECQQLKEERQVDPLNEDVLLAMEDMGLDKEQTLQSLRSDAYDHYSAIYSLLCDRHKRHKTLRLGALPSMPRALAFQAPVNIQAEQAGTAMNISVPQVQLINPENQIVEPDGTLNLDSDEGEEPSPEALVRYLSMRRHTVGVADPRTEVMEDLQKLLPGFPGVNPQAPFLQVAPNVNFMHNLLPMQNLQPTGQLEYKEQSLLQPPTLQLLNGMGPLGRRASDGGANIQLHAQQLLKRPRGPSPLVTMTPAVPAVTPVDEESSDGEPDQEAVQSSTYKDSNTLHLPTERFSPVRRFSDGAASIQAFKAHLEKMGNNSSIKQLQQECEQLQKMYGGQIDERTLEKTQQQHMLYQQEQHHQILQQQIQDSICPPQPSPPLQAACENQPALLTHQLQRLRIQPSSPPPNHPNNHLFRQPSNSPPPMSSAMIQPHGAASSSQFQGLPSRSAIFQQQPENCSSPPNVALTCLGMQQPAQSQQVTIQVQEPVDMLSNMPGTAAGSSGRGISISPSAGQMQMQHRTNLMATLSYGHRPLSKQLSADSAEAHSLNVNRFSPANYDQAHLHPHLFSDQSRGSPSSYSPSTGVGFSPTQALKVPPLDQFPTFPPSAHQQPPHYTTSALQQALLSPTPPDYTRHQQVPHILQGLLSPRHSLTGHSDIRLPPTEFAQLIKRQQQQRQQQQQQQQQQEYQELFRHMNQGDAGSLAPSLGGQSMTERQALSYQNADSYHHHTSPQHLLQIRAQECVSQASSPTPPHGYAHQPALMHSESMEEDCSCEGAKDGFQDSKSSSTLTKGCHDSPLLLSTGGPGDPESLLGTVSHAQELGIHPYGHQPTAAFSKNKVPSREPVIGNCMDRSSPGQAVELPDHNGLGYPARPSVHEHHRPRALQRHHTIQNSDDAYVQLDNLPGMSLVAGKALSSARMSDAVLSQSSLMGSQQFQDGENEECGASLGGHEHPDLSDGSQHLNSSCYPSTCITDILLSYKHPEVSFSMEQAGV

With `Cc1cc(Nc2nc(N[C@@H](C)c3ncc(F)cn3)ncc2Cl)n[nH]1` [AZD-1480], the Kd (in assay [1]; in assay [2]; at Glycine--tRNA ligase; in assay [3]; at Scaffold protein ILK) was > 30 µM (inactive) throughout.

As for `COc1cc(F)c(F)c(Nc2ccc(I)cc2F)c1NS(=O)(=O)C1(C[C@H](O)CO)CC1` [REFAMETINIB], the Kd in assay [1] is > 30 µM (inactive); in assay [2] it was > 30 µM (inactive); on Glycine--tRNA ligase it was > 30 µM (inactive); in assay [3] it was 0.036 µM (active); at Aurora kinase A, > 30 µM (inactive).

Take `CCOc1ccn(-c2ccc(F)cc2)c(=O)c1C(=O)Nc1ccc(Oc2ccnc(N)c2Cl)c(F)c1` [BMS-777607]: the Kd (in assay [2]; at Glycine--tRNA ligase; in assay [3]; on Aurora kinase A) was > 30 µM (inactive) throughout.

As for `O[C@H]1CC[C@H](Nc2ncc3nc(Nc4c(F)cc(F)cc4F)n([C@H]4CCOC4)c3n2)CC1` [TANZISERTIB], the Kd in assay [1] was > 30 µM (inactive); in assay [2], 2.98 µM (active); on Glycine--tRNA ligase it was > 30 µM (inactive); at Aurora kinase A, > 30 µM (inactive).

As for `CC1(C)CNc2cc(NC(=O)c3cccnc3NCc3ccncc3)ccc21` [MOTESANIB], the Kd (in assay [1]; at Glycine--tRNA ligase; at Scaffold protein ILK) was > 30 µM (inactive) each time.

Consider `COc1cc2c(N3CCN(C(=O)Nc4ccc(OC(C)C)cc4)CC3)ncnc2cc1OCCCN1CCCCC1` [TANDUTINIB], for which the Kd (in assay [1]; at Glycine--tRNA ligase; at Scaffold protein ILK) was > 30 µM (inactive) each time.

For the compound `NC(=O)c1ccc(N(C(N)=O)c2c(F)cccc2F)nc1-c1ccc(F)cc1F` [VX-702], the Kd (in assay [1]; in assay [2]; on Glycine--tRNA ligase; on Aurora kinase A; at Scaffold protein ILK) was > 30 µM (inactive) throughout.

Consider `CCN(CCCOc1ccc2c(Nc3cc(CC(=O)Nc4cccc(F)c4)n[nH]3)ncnc2c1)CCOP(=O)(O)O` [BARASERTIB], for which the Kd (in assay [1]; in assay [2]; on Glycine--tRNA ligase) was > 30 µM (inactive) throughout.

`N#CCNC(=O)c1ccc(-c2ccnc(Nc3ccc(N4CCOCC4)cc3)n2)cc1` [MOMELOTINIB]: the Kd in assay [2] was 0.859 µM (active); on Glycine--tRNA ligase, > 30 µM (inactive); on Aurora kinase A, > 30 µM (inactive); at Scaffold protein ILK it was > 30 µM (inactive).

For `CN(C)C/C=C/C(=O)Nc1cc2c(Nc3ccc(F)c(Cl)c3)ncnc2cc1O[C@H]1CCOC1` [AFATINIB], the Kd (in assay [1]; on Glycine--tRNA ligase; at Scaffold protein ILK) was > 30 µM (inactive) in each case.

`CCN1CCN(Cc2ccc(Nc3ncc(F)c(-c4cc(F)c5nc(C)n(C(C)C)c5c4)n3)nc2)CC1` [ABEMACICLIB]: the Kd (in assay [1]; in assay [2]; on Glycine--tRNA ligase; at Aurora kinase A) was > 30 µM (inactive) each time.

In the case of `Cn1cnc2c(F)c(Nc3ccc(Br)cc3Cl)c(C(=O)NOCCO)cc21` [SELUMETINIB], the Kd (in assay [1]; at Glycine--tRNA ligase; on Scaffold protein ILK) was > 30 µM (inactive) in each case.

In the case of `C=CC(=O)Nc1cccc(Nc2nc(Nc3ccc(N4CCN(C(C)=O)CC4)cc3OC)ncc2C(F)(F)F)c1` [ROCILETINIB], the Kd (in assay [1]; in assay [2]; on Glycine--tRNA ligase; in assay [3]; on Aurora kinase A) was > 30 µM (inactive) each time.

With `S=C(NCc1ccc2c(c1)OCO2)N1CCN(c2ncnc3c2oc2ccccc23)CC1` [AMUVATINIB], the Kd (in assay [1]; in assay [2]; at Glycine--tRNA ligase; at Aurora kinase A; at Scaffold protein ILK) was > 30 µM (inactive) in each case.

In the case of `Cn1cc(-c2[nH]c3cc(NC(=O)[C@H](N)C4CCCCC4)cc4c3c2C=NNC4=O)cn1`, the Kd was > 30 µM (inactive) in assay [1]; 0.386 µM (active) in assay [2]; > 30 µM (inactive) on Glycine--tRNA ligase; > 30 µM (inactive) in assay [3]; > 30 µM (inactive) on Scaffold protein ILK.

For the compound `Cn1c(=O)n(-c2ccc(C(C)(C)C#N)cc2)c2c3cc(-c4cnc5ccccc5c4)ccc3ncc21` [DACTOLISIB], the Kd (in assay [1]; in assay [2]; at Glycine--tRNA ligase; at Scaffold protein ILK) was > 30 µM (inactive) each time.

On to `CN1CCN(c2nc(C3=C(c4c[nH]c5ccccc45)C(=O)NC3=O)c3ccccc3n2)CC1` [SOTRASTAURIN], for which the Kd (in assay [1]; in assay [2]; on Glycine--tRNA ligase; in assay [3]; at Aurora kinase A) was > 30 µM (inactive) each time.

Consider `COc1cc2c(Oc3ccc4[nH]c(C)cc4c3F)ncnc2cc1OCCCN1CCCC1` [CEDIRANIB], for which the Kd at Glycine--tRNA ligase and on Scaffold protein ILK was > 30 µM (inactive) each time.

For `C[C@]1(O)C[C@@H](c2nc(-c3ccc4ccc(-c5ccccc5)nc4c3)c3c(N)nccn32)C1` [LINSITINIB], the Kd (in assay [1]; in assay [2]; at Glycine--tRNA ligase; in assay [3]) was > 30 µM (inactive) each time.

In the case of `CN(c1ncccc1CNc1nc(Nc2ccc3c(c2)CC(=O)N3)ncc1C(F)(F)F)S(C)(=O)=O` [PF-00562271], the Kd was 2.64 µM (active) in assay [1], > 30 µM (inactive) in assay [2], > 30 µM (inactive) on Glycine--tRNA ligase and > 30 µM (inactive) at Scaffold protein ILK.

`C[C@@]1(C(=O)Nc2ccc(F)nc2)CCCN1c1nc(Nc2cc(C3CC3)n[nH]2)c2cccn2n1` [BMS-754807]: the Kd (in assay [1]; on Glycine--tRNA ligase; on Scaffold protein ILK) was > 30 µM (inactive) each time.

Take `COc1cc2nccc(Oc3ccc(NC(=O)C4(C(=O)Nc5ccc(F)cc5)CC4)cc3)c2cc1OC` [CABOZANTINIB]: the Kd (in assay [1]; in assay [2]; on Glycine--tRNA ligase; in assay [3]; at Scaffold protein ILK) was > 30 µM (inactive) throughout.
